From patent publication US11155668B2, “Contact-killing, QAC functionalized thermoplastic polyurethane for catheter applications” (THE UNIVERSITY OF AKRON, priority 2017, dated 2021)
“Also recorded” adds a separate entry of the source.

Key:
E. coli [1] = test: Contact-killing assay (adapted from ISO 22196) on allyl-TPU blade-coated samples modified with Qx-SH; format: cell-based, Escherichia coli (ATCC 25922); details: for log reduction in E. coli compared to the negative control / reduction in E. coli compared to the negative control: 24 h contact-killing assay; for Mean CFU/Sample Recovered, E. coli: n = 2, negative control polypropylene 2.04 (±0.06) × 10^6
Protocol: (§1) To functionalize the allyl-TPU blade-coated samples with Qx-SH reagents, thiol-ene reactions were performed using the same procedure described for rhodamine-SH. Briefly, blade-coated films of allyl-TPU (250 μm thick, 2.0 cm diameter, ca. 110 mg, 20 μmol allyl) were submerged in 2 mL of an Ar purged (30 min) aqueous solution containing Qx-SH (10.0 mM) and LAP (5.0 mM), and allowed to pre-soak for 30 min under Ar. UV-treated samples were irradiated for 30 min (λ=365 nm, I=1.2 mW·cm^−2) while phys. ads. samples were kept in the absence of UV light for 30 min to control for any antimicrobial activity that is contributed by non-covalently attached QAC. Following treatment, the dye/photoinitiator solutions were drawn up and discarded, and the samples were rinsed with 5 mL of DI water (3×) then submerged in 5 mL of DI water. The samples were further rinsed with 10% EtOH (3×) and soaked in 10% EtOH for 15 min (3×), rinsing with 10% EtOH in between each soak.
(§2) For antimicrobial testing, blade-coated samples and catheter tubing of allyl-TPU were sterilized by EtO sterilization using an Anprolene benchtop sterilizer (Anderson Products, Inc., Haw River, N.C.) following the manufacturer's protocol to deliver approximately 0.5 cc·L^−1 of EtO gas over a 12 h sterilization cycle at 35% humidity and room temperature, followed by a 48 h purge under vacuum. The bacterial strains used in this study included Staphylococcus epidermidis (ATCC 12228), Staphylococcus aureus (25923), Escherichia coli (ATCC 25922), Pseudomonas aeruginosa (ATCC 27853), Enterococcus faecalis (ATCC 29212), and methicillin-resistant Staphylococcus aureus (MRSA) (ATCC BAA-41).
The contact-killing assay was performed on physically adsorbed (phys. ads.), and UV-treated blade-coated samples modified with a series of Qx-SH reagents using a method adapted from ISO 22196. See, International Organization for Standardization. Measurement of antibacterial activity on plastics and other non porous surfaces (ISO 22196:2011), the disclosure of which is incorporated herein by reference in its entirety. Briefly, the samples were inoculated with same day cultures of select bacteria (e.g. E. coli, S. epidermidis) in dilute nutrient media (0.2% tryptic soy broth (TSB) in 1× phosphate buffered saline (PBS)) at approximately 150 colony-forming units (CFU)·mm^−2. Generally, 35 uL of 8.5×10^5 CFU/mL cultures were dispersed across the surface of the sample using sterile polypropylene cover films (area=198 mm^2). […] Following incubation, surviving cells were recovered from the samples using vigorous agitation (i.e. vortexing for 20 s in PBS). Surviving cells were enumerated via 10-fold series dilution and plating 100 μL onto tryptic soy agar (TSA), incubating overnight and then plate counting CFU. The mean CFU recovered per sample (CFU/sample) were calculated by accounting for dilutions. Internal controls samples of polypropylene and chlorhexidine treated with polypropylene were included in the assay.

MRSA = test: as above; format: cell-based; details: n = 1, negative control polypropylene 1.51 × 10^5
Protocol: as §1, §2
The contact-killing assay was performed on physically adsorbed (phys. ads.), and UV-treated blade-coated samples modified with a series of Qx-SH reagents using a method adapted from ISO 22196. See, International Organization for Standardization. Measurement of antibacterial activity on plastics and other non porous surfaces (ISO 22196:2011), the disclosure of which is incorporated herein by reference in its entirety. Briefly, the samples were inoculated with same day cultures of select bacteria (e.g. E. coli, S. epidermidis) in dilute nutrient media (0.2% tryptic soy broth (TSB) in 1× phosphate buffered saline (PBS)) at approximately 150 colony-forming units (CFU)·mm^−2. Generally, 35 uL of 8.5×10^5 CFU/mL cultures were dispersed across the surface of the sample using sterile polypropylene cover films (area=198 mm^2). Inoculated samples were incubated in a humidified room air incubator (36° C., ca. 80% rel. humidity) for 20 h. Following incubation, surviving cells were recovered from the samples using vigorous agitation (i.e. vortexing for 20 s in PBS). Surviving cells were enumerated via 10-fold series dilution and plating 100 μL onto tryptic soy agar (TSA), incubating overnight and then plate counting CFU. The mean CFU recovered per sample (CFU/sample) were calculated by accounting for dilutions. Internal controls samples of polypropylene and chlorhexidine treated with polypropylene were included in the assay.

S. aureus = test: Live/dead fluorescence assay on blade-coated samples modified with Q8-SH; format: cell-based, Staphylococcus aureus (25923); details: within 5 min
Protocol: as §2
A live/dead assay was performed using overnight cultures of E. coli grown in TSB and S. aureus grown in Mueller-Hinton broth (MH). The cells were washed with PBS (3×), resuspended in PBS, and diluted to obtain an OD600=0.15 (measured using a Hach DR2800 Spectrophotometer, λ=600 nm). The bacterial suspensions (1.0 mL) were stained with 2.0 μL of a dye mixture containing equal portions of 3.34 mM SYTO 9 and 20 mM propidium iodide (L7012 LIVE/DEAD™ BACLIGHT™ Bacterial Viability Kit, ThermoFisher Scientific) and allowed to incubate at room temperature in the dark for 15 min. […] Live/dead microscopy was performed using an IX81 inverted microscope (Olympus, Center Valley, Pa.) and images were processed and quantified using ImageJ software.

E. coli [2] = test: as above; format: cell-based, Escherichia coli (ATCC 25922); details: for E. coli killed: at 10 min
Protocol: as §2
A live/dead assay was performed using overnight cultures of E. coli grown in TSB and S. aureus grown in Mueller-Hinton broth (MH). The cells were washed with PBS (3×), resuspended in PBS, and diluted to obtain an OD600=0.15 (measured using a Hach DR2800 Spectrophotometer, λ=600 nm). The bacterial suspensions (1.0 mL) were stained with 2.0 μL of a dye mixture containing equal portions of 3.34 mM SYTO 9 and 20 mM propidium iodide (L7012 LIVE/DEAD™ BACLIGHT™ Bacterial Viability Kit, ThermoFisher Scientific) and allowed to incubate at room temperature in the dark for 15 min. Then, 10 μL of stained bacterial suspension was placed on a glass slide and covered with either untreated, phys. ads., or UV-treated samples modified with Q8-SH for 5 min (S. aureus) or 10 min (E. coli) before imaging. Live/dead microscopy was performed using an IX81 inverted microscope (Olympus, Center Valley, Pa.) and images were processed and quantified using ImageJ software.

[3] = UV-treated samples, within 10 min, OD600=0.15

SMILES: CCCCCCCC[N+](C)(C)CCCCCCCCOC(=O)CCS.[Cl-] [Q8-SH]
- log reduction in E. coli compared to the negative control (E. coli [1]; UV-treated samples): 6 log
- reduction in E. coli compared to the negative control (E. coli [1]; UV-treated samples): 99.9999%
- Mean CFU/Sample Recovered, E. coli (E. coli [1]; UV-treated samples): 0.00 ± 0.00 CFU/Sample
- log reduction in E. coli compared to the negative control (E. coli [1]; phys. ads. samples): 6 log
- reduction in E. coli compared to the negative control (E. coli [1]; phys. ads. samples): 99.9999%
- Mean CFU/Sample Recovered, E. coli (E. coli [1]; phys. ads. samples): 0.00 ± 0.00 CFU/Sample
- Mean CFU/Sample Recovered, MRSA (MRSA; UV-treated samples): 0.00 CFU/Sample
- Mean CFU/Sample Recovered, MRSA (MRSA; phys. ads. samples): 0.00 CFU/Sample
- portion of S. aureus killed (S. aureus; UV-treated samples): ca. 75%
- S. aureus inoculum killed (in words) (S. aureus; [3]): nearly all; also recorded: majority
- portion of S. aureus killed (S. aureus; phys. ads. samples): ca. 50%
- E. coli killed (E. coli [2]; UV-treated samples): 90%
- E. coli inoculum killed (in words) (E. coli [2]; [3]): nearly all; also recorded: majority
- E. coli killed (E. coli [2]; phys. ads. samples): 5%
